PubChem BioAssay AID1259407 (Chemical Carcinogenesis Research Information System (CCRIS), 2018)
Calls of active or inactive are those of the source. No rule for the calls is given here.

Tested on: CCRIS mutagenicity, Ames/micronucleus/aberration tests
Assay: CCRIS mutagenicity studies
[1] = Test System: AMES SALMONELLA TYPHIMURIUM, Strain/Indicator: TA98, Metabolic Activation: NONE, Method: PREINCUBATION
[2] = Test System: AMES SALMONELLA TYPHIMURIUM, Strain/Indicator: TA100, Metabolic Activation: NONE, Method: PREINCUBATION
[3] = Test System: AMES SALMONELLA TYPHIMURIUM, Strain/Indicator: TA1535, Metabolic Activation: NONE, Method: PREINCUBATION
[4] = Test System: AMES SALMONELLA TYPHIMURIUM, Strain/Indicator: TA1537, Metabolic Activation: NONE, Method: PREINCUBATION
[5] = Test System: AMES SALMONELLA TYPHIMURIUM, Strain/Indicator: TA98, Metabolic Activation: NONE, Method: STANDARD PLATE
[6] = Test System: AMES SALMONELLA TYPHIMURIUM, Strain/Indicator: TA100, Metabolic Activation: NONE, Method: STANDARD PLATE

## CCCCCCCCC
Test System: AMES SALMONELLA TYPHIMURIUM, Strain/Indicator: TA97, Metabolic Activation: HAMSTER, LIVER, S-9, AROCLOR 1254 (10 OR 30%), Method: PREINCUBATION
  mutagenic call: inactive; negative
Test System: AMES SALMONELLA TYPHIMURIUM, Strain/Indicator: TA97, Metabolic Activation: NONE, Method: PREINCUBATION
  mutagenic call: inactive; negative
Test System: AMES SALMONELLA TYPHIMURIUM, Strain/Indicator: TA97, Metabolic Activation: RAT, LIVER, S-9, AROCLOR 1254 (10 OR 30%), Method: PREINCUBATION
  mutagenic call: inactive; negative
Test System: AMES SALMONELLA TYPHIMURIUM, Strain/Indicator: TA98, Metabolic Activation: HAMSTER, LIVER, S-9, AROCLOR 1254 (10 OR 30%), Method: PREINCUBATION
  mutagenic call: inactive; negative
[1]
  mutagenic call: inactive; negative
Test System: AMES SALMONELLA TYPHIMURIUM, Strain/Indicator: TA98, Metabolic Activation: RAT, LIVER, S-9, AROCLOR 1254 (10 OR 30%), Method: PREINCUBATION
  mutagenic call: inactive; negative
Test System: AMES SALMONELLA TYPHIMURIUM, Strain/Indicator: TA100, Metabolic Activation: HAMSTER, LIVER, S-9, AROCLOR 1254 (10 OR 30%), Method: PREINCUBATION
  mutagenic call: inactive; negative
[2]
  mutagenic call: inactive; negative
Test System: AMES SALMONELLA TYPHIMURIUM, Strain/Indicator: TA100, Metabolic Activation: RAT, LIVER, S-9, AROCLOR 1254 (10 OR 30%), Method: PREINCUBATION
  mutagenic call: inactive; negative
Test System: AMES SALMONELLA TYPHIMURIUM, Strain/Indicator: TA1535, Metabolic Activation: HAMSTER, LIVER, S-9, AROCLOR 1254 (10 OR 30%), Method: PREINCUBATION
  mutagenic call: inactive; negative
[3]
  mutagenic call: inactive; negative
Test System: AMES SALMONELLA TYPHIMURIUM, Strain/Indicator: TA1535, Metabolic Activation: RAT, LIVER, S-9, AROCLOR 1254 (10 OR 30%), Method: PREINCUBATION
  mutagenic call: inactive; negative
Test System: AMES SALMONELLA TYPHIMURIUM, Strain/Indicator: TA1537, Metabolic Activation: HAMSTER, LIVER, S-9, AROCLOR 1254 (30%), Method: PREINCUBATION
  mutagenic call: inactive; negative
[4]
  mutagenic call: inactive; negative
Test System: AMES SALMONELLA TYPHIMURIUM, Strain/Indicator: TA1537, Metabolic Activation: RAT, LIVER, S-9, AROCLOR 1254 (30%), Method: PREINCUBATION
  mutagenic call: inactive; negative

## CN(C)CCCNc1c2ccccc2nc2c(Cl)ccc([N+](=O)[O-])c12
[5]
  mutagenic call: active; positive
[6]
  mutagenic call: active; positive

## C=CC(=O)OCCCC
Test System: AMES SALMONELLA TYPHIMURIUM, Strain/Indicator: TA98, Metabolic Activation: HAMSTER, LIVER, S-9, AROCLOR 1254 (10%), Method: PREINCUBATION
  mutagenic call: inactive; negative
[1]
  mutagenic call: inactive; negative
[5]
  mutagenic call: inactive; negative
Test System: AMES SALMONELLA TYPHIMURIUM, Strain/Indicator: TA98, Metabolic Activation: RAT, LIVER, S-9, AROCLOR 1254 (10%), Method: PREINCUBATION
  mutagenic call: inactive; negative
Test System: AMES SALMONELLA TYPHIMURIUM, Strain/Indicator: TA98, Metabolic Activation: RAT, LIVER, S-9, AROCLOR 1254, Method: STANDARD PLATE
  mutagenic call: inactive; negative
Test System: AMES SALMONELLA TYPHIMURIUM, Strain/Indicator: TA98, Metabolic Activation: RAT, LIVER, S-9, SODIUM PHENOBARBITAL, Method: STANDARD PLATE
  mutagenic call: inactive; negative
Test System: AMES SALMONELLA TYPHIMURIUM, Strain/Indicator: TA100, Metabolic Activation: HAMSTER, LIVER, S-9, AROCLOR 1254 (10%), Method: PREINCUBATION
  mutagenic call: inactive; negative
[2]
  mutagenic call: inactive; negative
[6]
  mutagenic call: inactive; negative
Test System: AMES SALMONELLA TYPHIMURIUM, Strain/Indicator: TA100, Metabolic Activation: RAT, LIVER, S-9, AROCLOR 1254 (10%), Method: PREINCUBATION
  mutagenic call: inactive; negative
Test System: AMES SALMONELLA TYPHIMURIUM, Strain/Indicator: TA100, Metabolic Activation: RAT, LIVER, S-9, AROCLOR 1254, Method: PREINCUBATION
  mutagenic call: inactive; negative
Test System: AMES SALMONELLA TYPHIMURIUM, Strain/Indicator: TA100, Metabolic Activation: RAT, LIVER, S-9, AROCLOR 1254, Method: STANDARD PLATE
  mutagenic call: inactive; negative
Test System: AMES SALMONELLA TYPHIMURIUM, Strain/Indicator: TA100, Metabolic Activation: RAT, LIVER, S-9, SODIUM PHENOBARBITAL, Method: STANDARD PLATE
  mutagenic call: inactive; negative
Test System: AMES SALMONELLA TYPHIMURIUM, Strain/Indicator: TA1535, Metabolic Activation: HAMSTER, LIVER, S-9, AROCLOR 1254 (10%), Method: PREINCUBATION
  mutagenic call: inactive; negative
[3]
  mutagenic call: inactive; negative
Test System: AMES SALMONELLA TYPHIMURIUM, Strain/Indicator: TA1535, Metabolic Activation: NONE, Method: STANDARD PLATE
  mutagenic call: inactive; negative
Test System: AMES SALMONELLA TYPHIMURIUM, Strain/Indicator: TA1535, Metabolic Activation: RAT, LIVER, S-9, AROCLOR 1254 (10%), Method: PREINCUBATION
  mutagenic call: inactive; negative
Test System: AMES SALMONELLA TYPHIMURIUM, Strain/Indicator: TA1535, Metabolic Activation: RAT, LIVER, S-9, AROCLOR 1254, Method: STANDARD PLATE
  mutagenic call: inactive; negative
Test System: AMES SALMONELLA TYPHIMURIUM, Strain/Indicator: TA1535, Metabolic Activation: RAT, LIVER, S-9, SODIUM PHENOBARBITAL, Method: STANDARD PLATE
  mutagenic call: inactive; negative
Test System: AMES SALMONELLA TYPHIMURIUM, Strain/Indicator: TA1537, Metabolic Activation: HAMSTER, LIVER, S-9, AROCLOR 1254 (10%), Method: PREINCUBATION
  mutagenic call: inactive; negative
[4]
  mutagenic call: inactive; negative
Test System: AMES SALMONELLA TYPHIMURIUM, Strain/Indicator: TA1537, Metabolic Activation: NONE, Method: STANDARD PLATE
  mutagenic call: inactive; negative
Test System: AMES SALMONELLA TYPHIMURIUM, Strain/Indicator: TA1537, Metabolic Activation: RAT, LIVER, S-9, AROCLOR 1254 (10%), Method: PREINCUBATION
  mutagenic call: inactive; negative
Test System: AMES SALMONELLA TYPHIMURIUM, Strain/Indicator: TA1537, Metabolic Activation: RAT, LIVER, S-9, AROCLOR 1254, Method: STANDARD PLATE
  mutagenic call: inactive; negative
Test System: AMES SALMONELLA TYPHIMURIUM, Strain/Indicator: TA1537, Metabolic Activation: RAT, LIVER, S-9, SODIUM PHENOBARBITAL, Method: STANDARD PLATE
  mutagenic call: inactive; negative
Test System: AMES SALMONELLA TYPHIMURIUM, Strain/Indicator: TA1538, Metabolic Activation: NONE, Method: STANDARD PLATE
  mutagenic call: inactive; negative
Test System: AMES SALMONELLA TYPHIMURIUM, Strain/Indicator: TA1538, Metabolic Activation: RAT, LIVER, S-9, AROCLOR 1254, Method: STANDARD PLATE
  mutagenic call: inactive; negative
Test System: AMES SALMONELLA TYPHIMURIUM, Strain/Indicator: TA1538, Metabolic Activation: RAT, LIVER, S-9, SODIUM PHENOBARBITAL, Method: STANDARD PLATE
  mutagenic call: inactive; negative
Test System: MOUSE LYMPHOMA, Strain/Indicator: L5178Y (TK+/TK-), Metabolic Activation: NONE, Method: SUSPENSION/PLATE
  mutagenic call: active; positive. reevaluation of results: positive
Test System: MOUSE LYMPHOMA, Strain/Indicator: L5178Y (TK+/TK-), Metabolic Activation: RAT, LIVER, S-9, AROCLOR 1254, Method: SUSPENSION/PLATE
  mutagenic call: inactive; negative. reevaluation of results: negative
Test System: UDS RODENT CELLS, Strain/Indicator: SHE CELL-MEDIATED, Metabolic Activation: NONE, Method: LIQUID SCINTILLATION COUNTING (THYMIDINE INCORPORATION)
  mutagenic call: inactive; negative
